Experimental data taken from US12172992B2, “Pyrimidines for degrading Bruton's tyrosine kinase” (AbbVie Inc., priority 2022, dated 2024).

Target: BTK in mouse bone marrow (Mus musculus (Mouse), UniProt P35991)
Assay: Mouse Bone Marrow Assay (MSD ELISA of BTK degradation in bone marrow)
Format: in vivo
Details: female C57BL/6J mice, single dose of Dose A, bone marrow collected after 24 hours
Experimental: Female C57BL/6J mice (Jackson Laboratories) were used for this study. Compounds or vehicle/control were prepped with EtOH; PEG-400; Phosal 53 MCT (10:30:60, v/v). Four mice were tested per compound or vehicle/control. On Day 1, mice were administered a single dose of Dose A. On Day 2 (after 24 hours), tissue (bone marrow) was collected from one hind leg per mouse.
An MSD (Meso Scale Discovery) ELISA (enzyme-linked immunosorbent assay) based assay was used to determine BTK degradation in mouse bone marrow. The following materials and equipment were used: 10% NP40 solution (nonionic polyoxyethylene surfactant, ThermoFisher, cat no. 28324); protease inhibitor mini tablet (Roche, cat no. 05 892 970 001); PhosphoSTOP™ tablet (Roche, cat no. 04 906 837 001); Pierce™ BCA Protein Assay Kit (Thermofisher, Cat No. 23225); Precellys® 2 mL lysing tube with 2.8 mm beads (VWR, cat no. 10032-756); Bertin Precellys® 24/Cryolys® cooling system; 96-well MSD streptavidin pre-coated plates (MSD, cat no. L15SA-1); MSD Blocker A (MSD, cat no. R93BA-4); capture antibody, biotinylated BTK mAb (BD Biosciences, cat no. 624008; custom order); primary detection antibody, BTK RpAb (rabbit polyclonal antibody, CST, cat no. 8547S, D3H5 clone); secondary detection antibody, anti-Rabbit-Sulfo-Tag (MSD, cat no. R32AB-1); read Buffer, 4× (MSD, cat no. R92TC-1); recombinant BTK protein (Thermofisher, cat no. PR5442A); MSD Tris Wash Buffer (10×) (MSD, cat no. R61TX-1); PBS (phosphate-buffered saline); deionized water (diH2O); Lysis Buffer [0.2% NP40 in PBS+Protease Inhibitor tablet (1 tablet/10 mL)+PhosphoSTOP tablet (1 tablet/10 mL)]; 3% MSD Blocker A [MSD Blocker A+450 mL diH2O+50 mL]; and 10×MSD Tris Wash Buffer.
Lysis buffer [(PBS+0.2% NP40+PI (protease inhibitor)+PhosphoSTOP)] was prepared and put on ice until it was fully cold. Ice cold lysis buffer […] was added to each Precellys® tube containing beads and bone marrow sample. Sample tubes were transferred into Precellys® machine and homogenized using 5000 rpm—2×20 seconds. The sample lysates were centrifuged at 14,000 rpm for 20 minutes at 4° C. after homogenizing.
The protein concentration was determined using Pierce™ BCA Protein Assay Kit following manufacturer's recommended protocol. The protein normalized working solution was prepared, using 30 μg protein per sample lysate for assay.
A 300 ng/ml working stock solution of recombinant BTK protein in lysis buffer was prepared, and the sample was serially diluted at 3-fold dilution (10-point assay, highest concentration was 300 ng/mL and lowest concentration was 0.015 ng/mL)
MSD plate coating: Coating antibody (biotinylated-BTK mAb) stock solution was prepared at 1 μg/mL in PBS buffer. 50 μL/well capture antibody (Biotinylated BTK mAb) solution was added, and the plates were shaken gently at ambient temperature for two hours. The plates were washed 3 times with 1×MSD Tris Wash Buffer in a plate washer (300 μL/well), and the plates were blocked with 3% MSD Blocker A (150 μL/well). The plates were incubated for an additional 1-2 hours at ambient temperature with gentle shaking. The plates were washed 3 times with 1×MSD wash buffer using plate washer. Bone marrow lysates (30 μg) at a final volume of 50 μL/well were added into the plates. The serially diluted standard samples were added to the same plates at a final volume of 50 μL/well. The plates were incubated overnight at 4° C. with gentle shaking.
The plates were washed three times with 1×MSD wash buffer (prepared from 10× concentration buffer) using plate washer. Primary detection antibody at 50 μL/well was added (BTK RpAb; 1:1000 dilution in 1% MSD Blocker A). The plates were incubated for two hours at ambient temperature with gentle shaking. The plates were washed three times with 1×MSD wash buffer using plate washer. Anti-Rabbit-SULFO-TAG secondary antibodies (50 μl/well) were added, 1:500 diluted in 1% MSD Blocker A, and the plates were incubated for one to two hours at ambient temperature. […]

Sequence of BTK in mouse bone marrow (P35991 whole entry): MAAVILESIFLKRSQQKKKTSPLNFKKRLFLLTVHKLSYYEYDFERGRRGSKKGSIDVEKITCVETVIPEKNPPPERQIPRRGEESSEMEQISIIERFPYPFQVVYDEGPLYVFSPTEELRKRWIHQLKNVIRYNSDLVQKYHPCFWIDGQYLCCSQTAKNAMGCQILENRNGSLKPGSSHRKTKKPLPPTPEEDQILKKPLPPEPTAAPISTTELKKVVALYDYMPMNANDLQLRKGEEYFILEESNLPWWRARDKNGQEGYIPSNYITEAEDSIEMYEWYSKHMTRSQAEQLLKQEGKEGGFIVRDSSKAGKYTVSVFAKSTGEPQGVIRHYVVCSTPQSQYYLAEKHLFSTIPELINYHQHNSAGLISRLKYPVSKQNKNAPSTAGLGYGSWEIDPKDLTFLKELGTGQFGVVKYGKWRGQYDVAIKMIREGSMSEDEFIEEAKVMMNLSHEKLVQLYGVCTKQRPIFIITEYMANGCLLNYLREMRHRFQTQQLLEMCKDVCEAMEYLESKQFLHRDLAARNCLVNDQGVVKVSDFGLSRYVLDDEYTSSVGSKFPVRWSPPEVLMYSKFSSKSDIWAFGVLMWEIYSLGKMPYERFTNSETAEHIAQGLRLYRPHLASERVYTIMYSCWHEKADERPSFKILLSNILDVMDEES

Mouse Bone Marrow (%) (% remaining BTK, vehicle versus treated): 11%
Structure (SMILES): Cc1cc(-c2cc(Nc3ccc(N4CCN(CCc5ccc(N6CCC(=O)NC6=O)cc5)C[C@@H]4C)cn3)ncn2)ccc1[C@@H](C)NC(=O)c1nc(C(C)(C)C)no1 [Example 1, 3-tert-butyl-N-[(1R)-1-{4-[6-({5-[(2S)-4-{2-[4-(2,4-dioxo-1,3-diazinan-1-yl)phenyl]ethyl}-2-methylpiperazin-1-yl]pyridin-2-yl}amino)pyrimidin-4-yl]-2-methylphenyl}ethyl]-1,2,4-oxadiazole-5-carboxamide]
